Measured values published in US20240382629A1, “HETEROBIVALENT AND HOMOBIVALENT AGENTS TARGETING FIBROBLAST ACTIVATION PROTEIN ALPHA AND/OR PROSTATE-SPECIFIC MEMBRANE ANTIGEN” (The Johns Hopkins University, priority 2021, published 2024).

Test system: U87 tumor
Test: Biodistribution ([^18F]JHU1221823), carrier / specific activity study
Type: in vivo, mouse
Description: Biodistribution of Representative Compounds

[1] = mean (one mouse), NOD/SCID, U87 tumor, Carrier 700, 60 min post injection
[2] = mean, + 0.05 nmole carrier, 60 min post injection
[3] = mean, + 0.1 nmole carrier, 60 min post injection
[4] = mean, + 0.25 nmole carrier, 60 min post injection
[5] = mean, NOD/SCID, U87 tumor, Carrier 350 (350 mCi/μmol), 60 min post injection
[6] = mean, Nude mice, U87 tumor, Baseline (~5000 mCi/μmol), 60 min post injection
[7] = mean, Nude mice, U87 tumor, Carrier 350 (350 mCi/μmol), 60 min post injection
[8] = mean, Nude mice, U87 tumor, Carrier 700, 60 min post injection
[9] = mean, U87 tumor, Baseline, second block (stands before <NOD/SCID> heading), 60 min post injection

Compound: N#C[C@@H]1CCCN1C(=O)CNC(=O)c1ccnc2ccc(OCCCNC(=O)CCOCCOCCOCCOCCNC(=O)[C@H](CCCCNC(=O)c3ccc([18F])nc3)NC(=O)CN3CCN(CC(=O)O)CCN(CC(=O)O)CCN(CC(=O)O)CC3)cc12 [[^18F]JHU1221823]
- Bladder % ID/g [1]: 8.20 % ID/g
- Blood % ID/g [1]: 5.82 % ID/g
- Brain % ID/g [1]: 0.16 % ID/g
- Fat % ID/g [1]: 0.90 % ID/g
- Femur % ID/g [1]: 2.41 % ID/g
- Heart % ID/g [1]: 3.48 % ID/g
- Kidney % ID/g [1]: 2.45 % ID/g
- Large intestine % ID/g [1]: 2.26 % ID/g
- Liver % ID/g [1]: 2.36 % ID/g
- Lung % ID/g [1]: 3.56 % ID/g
- Muscle % ID/g [1]: 1.99 % ID/g
- Pancreas % ID/g [1]: 13.03 % ID/g
- Salivary gland % ID/g [1]: 11.31 % ID/g
- Small intestine % ID/g [1]: 3.48 % ID/g
- Spleen % ID/g [1]: 1.46 % ID/g
- Stomach % ID/g [1]: 1.64 % ID/g
- Tumor % ID/g [1]: 7.79 % ID/g
- Bladder % ID/g (mean, + 0.01 nmole carrier): 2.00 % ID/g
- Blood % ID/g (mean, + 0.01 nmole carrier): 11.29 % ID/g
- Brain % ID/g (mean, + 0.01 nmole carrier): 0.30 % ID/g
- Fat % ID/g (mean, + 0.01 nmole carrier): 0.34 % ID/g
- Femur % ID/g (mean, + 0.01 nmole carrier): 3.53 % ID/g
- Heart % ID/g (mean, + 0.01 nmole carrier): 4.62 % ID/g
- Kidney % ID/g (mean, + 0.01 nmole carrier): 2.96 % ID/g
- Large intestine % ID/g (mean, + 0.01 nmole carrier): 1.62 % ID/g
- Liver % ID/g (mean, + 0.01 nmole carrier): 3.09 % ID/g
- Lung % ID/g (mean, + 0.01 nmole carrier): 6.15 % ID/g
- Muscle % ID/g (mean, + 0.01 nmole carrier): 1.88 % ID/g
- Pancreas % ID/g (mean, + 0.01 nmole carrier): 4.07 % ID/g
- Salivary gland % ID/g (mean, + 0.01 nmole carrier): 7.47 % ID/g
- Small intestine % ID/g (mean, + 0.01 nmole carrier): 2.20 % ID/g
- Spleen % ID/g (mean, + 0.01 nmole carrier): 2.01 % ID/g
- Stomach % ID/g (mean, + 0.01 nmole carrier): 1.49 % ID/g
- Tumor % ID/g (mean, + 0.01 nmole carrier): 2.37 % ID/g
- Bladder % ID/g [2]: 4.29 % ID/g
- Blood % ID/g [2]: 7.55 % ID/g
- Brain % ID/g [2]: 0.21 % ID/g
- Fat % ID/g [2]: 0.78 % ID/g
- Femur % ID/g [2]: 3.25 % ID/g
- Heart % ID/g [2]: 3.03 % ID/g
- Kidney % ID/g [2]: 2.29 % ID/g
- Large intestine % ID/g [2]: 1.53 % ID/g
- Liver % ID/g [2]: 2.13 % ID/g
- Lung % ID/g [2]: 4.10 % ID/g
- Muscle % ID/g [2]: 1.83 % ID/g
- Pancreas % ID/g [2]: 5.35 % ID/g
- Salivary gland % ID/g [2]: 10.93 % ID/g
- Small intestine % ID/g [2]: 1.82 % ID/g
- Spleen % ID/g [2]: 1.50 % ID/g
- Stomach % ID/g [2]: 1.27 % ID/g
- Tumor % ID/g [2]: 3.42 % ID/g
- Bladder % ID/g [3]: 1.75 % ID/g
- Blood % ID/g [3]: 4.10 % ID/g
- Brain % ID/g [3]: 0.12 % ID/g
- Fat % ID/g [3]: 1.65 % ID/g
- Femur % ID/g [3]: 3.72 % ID/g
- Heart % ID/g [3]: 1.84 % ID/g
- Kidney % ID/g [3]: 2.01 % ID/g
- Large intestine % ID/g [3]: 2.35 % ID/g
- Liver % ID/g [3]: 1.16 % ID/g
- Lung % ID/g [3]: 2.57 % ID/g
- Muscle % ID/g [3]: 1.97 % ID/g
- Pancreas % ID/g [3]: 4.67 % ID/g
- Salivary gland % ID/g [3]: 8.31 % ID/g
- Small intestine % ID/g [3]: 1.64 % ID/g
- Spleen % ID/g [3]: 0.96 % ID/g
- Stomach % ID/g [3]: 1.00 % ID/g
- Tumor % ID/g [3]: 5.08 % ID/g
- Bladder % ID/g [4]: 2.51 % ID/g
- Blood % ID/g [4]: 1.90 % ID/g
- Brain % ID/g [4]: 0.08 % ID/g
- Fat % ID/g [4]: 0.51 % ID/g
- Femur % ID/g [4]: 4.26 % ID/g
- Heart % ID/g [4]: 0.91 % ID/g
- Kidney % ID/g [4]: 1.92 % ID/g
- Large intestine % ID/g [4]: 0.65 % ID/g
- Liver % ID/g [4]: 0.75 % ID/g
- Lung % ID/g [4]: 1.37 % ID/g
- Muscle % ID/g [4]: 1.25 % ID/g
- Pancreas % ID/g [4]: 1.77 % ID/g
- Salivary gland % ID/g [4]: 3.31 % ID/g
- Small intestine % ID/g [4]: 0.91 % ID/g
- Spleen % ID/g [4]: 0.46 % ID/g
- Stomach % ID/g [4]: 0.69 % ID/g
- Tumor % ID/g [4]: 3.52 % ID/g
- Bladder % ID/g [5]: 4.33 % ID/g
- Blood % ID/g [5]: 4.14 % ID/g
- Brain % ID/g [5]: 0.09 % ID/g
- Fat % ID/g [5]: 0.85 % ID/g
- Femur % ID/g [5]: 3.43 % ID/g
- Heart % ID/g [5]: 2.14 % ID/g
- Kidney % ID/g [5]: 2.13 % ID/g
- Large intestine % ID/g [5]: 2.08 % ID/g
- Liver % ID/g [5]: 1.76 % ID/g
- Lung % ID/g [5]: 2.74 % ID/g
- Muscle % ID/g [5]: 2.03 % ID/g
- Pancreas % ID/g [5]: 10.18 % ID/g
- Salivary gland % ID/g [5]: 9.49 % ID/g
- Small intestine % ID/g [5]: 2.29 % ID/g
- Spleen % ID/g [5]: 1.80 % ID/g
- Stomach % ID/g [5]: 1.47 % ID/g
- Tumor % ID/g [5]: 8.64 % ID/g
- Bladder % ID/g [6]: 2.38 % ID/g
- Blood % ID/g [6]: 11.46 % ID/g
- Brain % ID/g [6]: 0.23 % ID/g
- Fat % ID/g [6]: 0.99 % ID/g
- Femur % ID/g [6]: 2.41 % ID/g
- Heart % ID/g [6]: 5.54 % ID/g
- Kidney % ID/g [6]: 2.91 % ID/g
- Large intestine % ID/g [6]: 1.40 % ID/g
- Liver % ID/g [6]: 3.31 % ID/g
- Lung % ID/g [6]: 6.97 % ID/g
- Muscle % ID/g [6]: 1.75 % ID/g
- Pancreas % ID/g [6]: 3.36 % ID/g
- Salivary gland % ID/g [6]: 6.91 % ID/g
- Small intestine % ID/g [6]: 2.70 % ID/g
- Spleen % ID/g [6]: 2.06 % ID/g
- Stomach % ID/g [6]: 1.23 % ID/g
- Tumor % ID/g [6]: 2.33 % ID/g
- Bladder % ID/g [7]: 1.73 % ID/g
- Blood % ID/g [7]: 5.84 % ID/g
- Brain % ID/g [7]: 0.14 % ID/g
- Fat % ID/g [7]: 0.89 % ID/g
- Femur % ID/g [7]: 4.15 % ID/g
- Heart % ID/g [7]: 2.50 % ID/g
- Kidney % ID/g [7]: 2.07 % ID/g
- Large intestine % ID/g [7]: 1.76 % ID/g
- Liver % ID/g [7]: 1.90 % ID/g
- Lung % ID/g [7]: 3.45 % ID/g
- Muscle % ID/g [7]: 2.41 % ID/g
- Pancreas % ID/g [7]: 6.29 % ID/g
- Salivary gland % ID/g [7]: 11.15 % ID/g
- Small intestine % ID/g [7]: 2.42 % ID/g
- Spleen % ID/g [7]: 1.29 % ID/g
- Stomach % ID/g [7]: 1.56 % ID/g
- Tumor % ID/g [7]: 2.27 % ID/g
- Bladder % ID/g [8]: 2.23 % ID/g
- Blood % ID/g [8]: 9.94 % ID/g
- Brain % ID/g [8]: 0.20 % ID/g
- Fat % ID/g [8]: 0.49 % ID/g
- Femur % ID/g [8]: 3.06 % ID/g
- Heart % ID/g [8]: 4.65 % ID/g
- Kidney % ID/g [8]: 2.53 % ID/g
- Large intestine % ID/g [8]: 1.62 % ID/g
- Liver % ID/g [8]: 2.81 % ID/g
- Lung % ID/g [8]: 5.57 % ID/g
- Muscle % ID/g [8]: 2.07 % ID/g
- Pancreas % ID/g [8]: 3.91 % ID/g
- Salivary gland % ID/g [8]: 8.13 % ID/g
- Small intestine % ID/g [8]: 2.18 % ID/g
- Spleen % ID/g [8]: 1.72 % ID/g
- Stomach % ID/g [8]: 1.37 % ID/g
- Tumor % ID/g [8]: 2.01 % ID/g
- Bladder % ID/g [9]: 6.92 % ID/g
- Blood % ID/g [9]: 10.99 % ID/g
- Brain % ID/g [9]: 0.22 % ID/g
- Fat % ID/g [9]: 0.62 % ID/g
- Femur % ID/g [9]: 2.37 % ID/g
- Heart % ID/g [9]: 6.95 % ID/g
- Kidney % ID/g [9]: 3.41 % ID/g
- Large intestine % ID/g [9]: 2.18 % ID/g
- Liver % ID/g [9]: 4.38 % ID/g
- Lung % ID/g [9]: 7.03 % ID/g
- Muscle % ID/g [9]: 1.64 % ID/g
- Pancreas % ID/g [9]: 8.17 % ID/g
- Salivary gland % ID/g [9]: 11.89 % ID/g
- Small intestine % ID/g [9]: 3.66 % ID/g
- Spleen % ID/g [9]: 2.16 % ID/g
- Stomach % ID/g [9]: 1.81 % ID/g
- Tumor % ID/g [9]: 3.08 % ID/g
- Bladder % ID/g (mean, carrier not given): 4.53 % ID/g
- Blood % ID/g (mean, carrier not given): 9.54 % ID/g
- Brain % ID/g (mean, carrier not given): 0.22 % ID/g
- Fat % ID/g (mean, carrier not given): 1.07 % ID/g
- Femur % ID/g (mean, carrier not given): 2.83 % ID/g
- Heart % ID/g (mean, carrier not given): 4.65 % ID/g
- Kidney % ID/g (mean, carrier not given): 2.73 % ID/g
- Large intestine % ID/g (mean, carrier not given): 1.49 % ID/g
- Liver % ID/g (mean, carrier not given): 2.99 % ID/g
- Lung % ID/g (mean, carrier not given): 5.72 % ID/g
- Muscle % ID/g (mean, carrier not given): 1.78 % ID/g
- Pancreas % ID/g (mean, carrier not given): 2.14 % ID/g
- Salivary gland % ID/g (mean, carrier not given): 6.93 % ID/g
- Small intestine % ID/g (mean, carrier not given): 3.02 % ID/g
- Spleen % ID/g (mean, carrier not given): 2.15 % ID/g
- Stomach % ID/g (mean, carrier not given): 1.14 % ID/g
- Tumor % ID/g (mean, carrier not given): 5.71 % ID/g
